Assay results reported in ChEMBL document CHEMBL1255445, “Evaluation of nucleoside hydrolase inhibitors for treatment of African trypanosomiasis” (Antimicrob Agents Chemother, 2010).
Activity calls are given as the source filed them.

Biological target: not listed separately
Assay: Inhibition of Trypanosoma brucei brucei inosine-adenosine-guanosine nucleoside hydrolase (IAG-NH)
Details: not given

SMILES | Ki
Nc1ncnc2c(CN3C[C@H](O)[C@H](O)[C@H]3CO)csc12 | 56 nM
Nc1ncnc2c(CN3C[C@H](O)[C@H](O)[C@H]3CO)c[nH]c12 | 18 nM
O=c1[nH]cnc2c([C@@H]3N[C@H](CO)[C@@H](O)[C@H]3O)c[nH]c12 [FORODESINE] | 24 nM
OC[C@@H]1[C@@H](O)[C@@H](O)CN1Cc1c[nH]c2c(O)ncnc12 | 30 nM
OC[C@@H]1[C@@H](O)[C@@H](O)CN1Cc1cccc2cccnc12 | 446 nM

Biological target: not listed separately
Assay: Inhibition of Trypanosoma brucei brucei Inosine guanosine nucleoside hydrolase
Details: not given

SMILES | Ki
Nc1ncnc2c(CN3C[C@H](O)[C@H](O)[C@H]3CO)csc12 | 31 µM
Nc1ncnc2c(CN3C[C@H](O)[C@H](O)[C@H]3CO)c[nH]c12 | 32 µM
O=c1[nH]cnc2c([C@@H]3N[C@H](CO)[C@@H](O)[C@H]3O)c[nH]c12 [FORODESINE] | 0.009 µM
OC[C@@H]1[C@@H](O)[C@@H](O)CN1Cc1c[nH]c2c(O)ncnc12 | 138 µM
OC[C@@H]1[C@@H](O)[C@@H](O)CN1Cc1cccc2cccnc12 | 11 µM

Biological target: not listed separately
Assay: Inhibition of Trypanosoma vivax Inosine-adenosine-guanosine-nucleoside hydrolase
Details: not given

SMILES | Ki
Nc1ncnc2c(CN3C[C@H](O)[C@H](O)[C@H]3CO)csc12 | 19 nM
Nc1ncnc2c(CN3C[C@H](O)[C@H](O)[C@H]3CO)c[nH]c12 | 4.1 nM
O=c1[nH]cnc2c([C@@H]3N[C@H](CO)[C@@H](O)[C@H]3O)c[nH]c12 [FORODESINE] | 6.2 nM
OC[C@@H]1[C@@H](O)[C@@H](O)CN1Cc1c[nH]c2c(O)ncnc12 | 4.4 nM
OC[C@@H]1[C@@H](O)[C@@H](O)CN1Cc1cccc2cccnc12 | 11 nM

Tested on: Trypanosoma brucei brucei
Assay: Antitrypanosomal activity against suramin sensitive Trypanosoma brucei brucei Lister 427 assessed as parasite killing at 1 uM after 24 hrs
Type: functional, organism-based
Details: not given

SMILES | Activity
Nc1ncnc2c(CN3C[C@H](O)[C@H](O)[C@H]3CO)c[nH]c12 | Active

Biological target: not listed separately
Assay: Inhibition of Trypanosoma brucei brucei Lister 427 Nucleoside/nucleobase transporter P2 transporter by scintillation counting
Details: not given

SMILES | Ki
Nc1ncnc2c(CN3C[C@H](O)[C@H](O)[C@H]3CO)csc12 | 125 µM
Nc1ncnc2c(CN3C[C@H](O)[C@H](O)[C@H]3CO)c[nH]c12 | 8.2 µM

Biological target: not listed separately
Assay: Inhibition of human purine nucleoside phosphorylase
Details: not given

SMILES | Ki
Nc1ncnc2c(CN3C[C@H](O)[C@H](O)[C@H]3CO)csc12 | 1000 µM
Nc1ncnc2c(CN3C[C@H](O)[C@H](O)[C@H]3CO)c[nH]c12 | 22.5 µM
OC[C@@H]1[C@@H](O)[C@@H](O)CN1Cc1c[nH]c2c(O)ncnc12 | 0.0058 µM
OC[C@@H]1[C@@H](O)[C@@H](O)CN1Cc1cccc2cccnc12 | > 1000 µM

Tested on: Trypanosoma cruzi
Assay: Antitrypanosomal activity against Trypanosoma cruzi Tulahuen CL2 s-galactosidase strain assessed as reduction in parasite growth after 3 days by fluorometrically
Type: functional, organism-based
Details: not given

SMILES | Activity
Nc1ncnc2c(CN3C[C@H](O)[C@H](O)[C@H]3CO)csc12 | inactive
Nc1ncnc2c(CN3C[C@H](O)[C@H](O)[C@H]3CO)c[nH]c12 | inactive
O=c1[nH]cnc2c([C@@H]3N[C@H](CO)[C@@H](O)[C@H]3O)c[nH]c12 [FORODESINE] | inactive
OC[C@@H]1[C@@H](O)[C@@H](O)CN1Cc1c[nH]c2c(O)ncnc12 | inactive
OC[C@@H]1[C@@H](O)[C@@H](O)CN1Cc1cccc2cccnc12 | inactive

Tested on: Trypanosoma brucei brucei
Assay: Antitrypanosomal activity against suramin sensitive Trypanosoma brucei brucei Lister 427 assessed as parasite killing at 10 uM after 48 hrs
Type: functional
Details: not given

SMILES | Activity
Nc1ncnc2c(CN3C[C@H](O)[C@H](O)[C@H]3CO)c[nH]c12 | 75%

Tested on: Trypanosoma brucei brucei
Assay: Antitrypanosomal activity against suramin sensitive Trypanosoma brucei brucei Lister 427 assessed as reduction in viability and mortality up to 20 uM over 7 hrs by in vitro lysis assay
Type: functional, organism-based
Details: not given

SMILES | Activity
Nc1ncnc2c(CN3C[C@H](O)[C@H](O)[C@H]3CO)c[nH]c12 | inactive

Tested on: Trypanosoma brucei rhodesiense
Assay: Antitrypanosomal activity against Trypanosoma brucei rhodesiense assessed as reduction in parasite growth after 3 days by fluorometrically
Type: functional, organism-based
Details: 72 h

SMILES | IC50
Nc1ncnc2c(CN3C[C@H](O)[C@H](O)[C@H]3CO)c[nH]c12 | 260 nM

Tested on: Leishmania infantum
Assay: Antileishmanial activity against Leishmania infantum MHOM/MA/67/ITMAP263 intracellular amastigotes assessed as reduction in parasite growth after 3 days by fluorometrically
Type: functional, organism-based
Details: not given

SMILES | Activity
Nc1ncnc2c(CN3C[C@H](O)[C@H](O)[C@H]3CO)csc12 | inactive
Nc1ncnc2c(CN3C[C@H](O)[C@H](O)[C@H]3CO)c[nH]c12 | inactive
O=c1[nH]cnc2c([C@@H]3N[C@H](CO)[C@@H](O)[C@H]3O)c[nH]c12 [FORODESINE] | inactive
OC[C@@H]1[C@@H](O)[C@@H](O)CN1Cc1c[nH]c2c(O)ncnc12 | inactive
OC[C@@H]1[C@@H](O)[C@@H](O)CN1Cc1cccc2cccnc12 | inactive

Tested on: Trypanosoma brucei brucei
Assay: Antitrypanosomal activity against suramin sensitive Trypanosoma brucei brucei Lister 427 infected in Swiss Webster mouse assessed as parasite clearance in blood at 50 mg/kg treated orally for 1 day followed by intraperitoneally for 4 days measured on 21 days post-infection
Type: functional, organism-based
Design: dose 50 mg/kg
Details: not given

SMILES | Activity
Nc1ncnc2c(CN3C[C@H](O)[C@H](O)[C@H]3CO)c[nH]c12 | Active

Tested on: Trypanosoma brucei brucei
Assay: Antitrypanosomal activity against suramin sensitive Trypanosoma brucei brucei Lister 427 infected in Swiss Webster mouse assessed as mouse survival at 50 mg/kg treated 1 day po and for 4 days in ip measured on 21 days after infectio
Type: functional
Details: not given

SMILES | Activity
Nc1ncnc2c(CN3C[C@H](O)[C@H](O)[C@H]3CO)c[nH]c12 | 75%

Tested on: not listed separately
Assay: Cytotoxicity against human MRC5 SV2 cells after 48 hrs
Type: cell-based
Details: MRC5, 48 h

SMILES | IC50
Nc1ncnc2c(CN3C[C@H](O)[C@H](O)[C@H]3CO)csc12 | > 64 µM
Nc1ncnc2c(CN3C[C@H](O)[C@H](O)[C@H]3CO)c[nH]c12 | > 64 µM
O=c1[nH]cnc2c([C@@H]3N[C@H](CO)[C@@H](O)[C@H]3O)c[nH]c12 [FORODESINE] | > 64 µM
OC[C@@H]1[C@@H](O)[C@@H](O)CN1Cc1c[nH]c2c(O)ncnc12 | > 64 µM
OC[C@@H]1[C@@H](O)[C@@H](O)CN1Cc1cccc2cccnc12 | > 64 µM

Tested on: Trypanosoma brucei brucei
Assay: Antitrypanosomal activity against suramin sensitive Trypanosoma brucei brucei Lister 427 infected in Swiss Webster mouse assessed as parasite clearance in blood at 50 mg/kg treated orally for 1 day followed by intraperitoneally for 4 days measured on 14 days post-infection
Type: functional, organism-based
Design: dose 50 mg/kg
Details: not given

SMILES | Activity
Nc1ncnc2c(CN3C[C@H](O)[C@H](O)[C@H]3CO)c[nH]c12 | Active

Tested on: Trypanosoma brucei brucei
Assay: Antitrypanosomal activity against suramin sensitive Trypanosoma brucei brucei Lister 427 assessed as reduction in parasite growth after 3 days by fluorometrically
Type: functional, organism-based
Details: Lister 427, 72 h

SMILES | IC50
Nc1ncnc2c(CN3C[C@H](O)[C@H](O)[C@H]3CO)csc12 | > 64 µM
Nc1ncnc2c(CN3C[C@H](O)[C@H](O)[C@H]3CO)c[nH]c12 | 0.49 µM
O=c1[nH]cnc2c([C@@H]3N[C@H](CO)[C@@H](O)[C@H]3O)c[nH]c12 [FORODESINE] | > 64 µM
OC[C@@H]1[C@@H](O)[C@@H](O)CN1Cc1c[nH]c2c(O)ncnc12 | > 64 µM
OC[C@@H]1[C@@H](O)[C@@H](O)CN1Cc1cccc2cccnc12 | > 64 µM

Tested on: Trypanosoma brucei brucei
Assay: Antitrypanosomal activity against suramin sensitive Trypanosoma brucei brucei Lister 427 infected in Swiss Webster mouse assessed as parasite clearance in blood at 50 mg/kg treated orally for 1 day followed by intraperitoneally for 4 days measured on 10 days post-infection
Type: functional, organism-based
Design: dose 50 mg/kg
Details: not given

SMILES | Activity
Nc1ncnc2c(CN3C[C@H](O)[C@H](O)[C@H]3CO)c[nH]c12 | Active

Tested on: Trypanosoma brucei brucei
Assay: Antitrypanosomal activity against suramin sensitive Trypanosoma brucei brucei Lister 427 assessed as parasite killing at 0.25 uM within 5 hrs
Type: functional, organism-based
Details: not given

SMILES | Activity
Nc1ncnc2c(CN3C[C@H](O)[C@H](O)[C@H]3CO)c[nH]c12 | Active

Tested on: Trypanosoma brucei brucei
Assay: Antitrypanosomal activity against suramin sensitive Trypanosoma brucei brucei Lister 427 assessed as reduction in parasite growth at > 5 uM by Alamar blue assay
Type: functional, organism-based
Details: not given

SMILES | Activity
Nc1ncnc2c(CN3C[C@H](O)[C@H](O)[C@H]3CO)c[nH]c12 | Active

Tested on: Plasmodium falciparum
Assay: Antiparasitic activity against chloroquine-sensitive Plasmodium falciparum Ghana assessed as reduction in parasite growth after 3 days by fluorimetry
Type: functional, organism-based
Details: not given

SMILES | Activity
Nc1ncnc2c(CN3C[C@H](O)[C@H](O)[C@H]3CO)csc12 | inactive
Nc1ncnc2c(CN3C[C@H](O)[C@H](O)[C@H]3CO)c[nH]c12 | inactive
O=c1[nH]cnc2c([C@@H]3N[C@H](CO)[C@@H](O)[C@H]3O)c[nH]c12 [FORODESINE] | inactive
OC[C@@H]1[C@@H](O)[C@@H](O)CN1Cc1c[nH]c2c(O)ncnc12 | inactive
OC[C@@H]1[C@@H](O)[C@@H](O)CN1Cc1cccc2cccnc12 | inactive

Biological target: not listed separately
Assay: Inhibition of Trypanosoma brucei brucei Lister 427 H2 transporter by scintillation counting
Details: not given

SMILES | Ki
Nc1ncnc2c(CN3C[C@H](O)[C@H](O)[C@H]3CO)c[nH]c12 | 590 µM

Biological target: not listed separately
Assay: Inhibition of Trypanosoma brucei brucei Lister 427 Nucleoside transporter P1 by scintillation counting
Details: not given

SMILES | Ki
Nc1ncnc2c(CN3C[C@H](O)[C@H](O)[C@H]3CO)csc12 | 540 µM
Nc1ncnc2c(CN3C[C@H](O)[C@H](O)[C@H]3CO)c[nH]c12 | 360 µM
OC[C@@H]1[C@@H](O)[C@@H](O)CN1Cc1c[nH]c2c(O)ncnc12 | > 1000 µM
